Reference: patent publication US20240270762A1, “PENICILLIN-BINDING PROTEIN INHIBITORS” (priority 2021, published 2024)
In brackets after ≈: the same amount, converted by molar mass. Like-named read-outs stand apart in the source and are kept apart here.

Legend:
[1] = system: B. humptydooensis ATCC BAA-2767; assay: microbe, parasite or virus in culture; format: cell-based; conditions: Burkholderia humptydooensis, ATCCBAA2767, read-out: Minimum inhibitory concentration (MIC), B. humptydooensis ATCC BAA-2767
P. aeruginosa ATCC 27853 = assay: microbe, parasite or virus in culture; format: cell-based; conditions: Pseudomonas aeruginosa, ATCC27853, read-out: Minimum inhibitory concentration, P. aeruginosa ATCC 27853
[2] = system: P. aeruginosa (ΔmexAB-oprM); assay: Broth microdilution MIC in iron-depleted CAMHB (IDM); format: cell-based; conditions: Pseudomonas aeruginosa, read-out: Minimum inhibitory concentration, P. aeruginosa ΔmexAB-oprM
P. aeruginosa ATCC 35151 = assay: microbe, parasite or virus in culture; format: cell-based; conditions: Pseudomonas aeruginosa, ATCC35151, read-out: Minimum inhibitory concentration, P. aeruginosa ATCC 35151
A. baumannii PBP1a = target: T1, A. baumannii PBP1a (Acinetobacter baumannii, UniProt A0ABX6CK30); assay: Bocillin-FL competition binding via gel filtration, A. baumannii PBP1a
T1 sequence (A0ABX6CK30 1-851): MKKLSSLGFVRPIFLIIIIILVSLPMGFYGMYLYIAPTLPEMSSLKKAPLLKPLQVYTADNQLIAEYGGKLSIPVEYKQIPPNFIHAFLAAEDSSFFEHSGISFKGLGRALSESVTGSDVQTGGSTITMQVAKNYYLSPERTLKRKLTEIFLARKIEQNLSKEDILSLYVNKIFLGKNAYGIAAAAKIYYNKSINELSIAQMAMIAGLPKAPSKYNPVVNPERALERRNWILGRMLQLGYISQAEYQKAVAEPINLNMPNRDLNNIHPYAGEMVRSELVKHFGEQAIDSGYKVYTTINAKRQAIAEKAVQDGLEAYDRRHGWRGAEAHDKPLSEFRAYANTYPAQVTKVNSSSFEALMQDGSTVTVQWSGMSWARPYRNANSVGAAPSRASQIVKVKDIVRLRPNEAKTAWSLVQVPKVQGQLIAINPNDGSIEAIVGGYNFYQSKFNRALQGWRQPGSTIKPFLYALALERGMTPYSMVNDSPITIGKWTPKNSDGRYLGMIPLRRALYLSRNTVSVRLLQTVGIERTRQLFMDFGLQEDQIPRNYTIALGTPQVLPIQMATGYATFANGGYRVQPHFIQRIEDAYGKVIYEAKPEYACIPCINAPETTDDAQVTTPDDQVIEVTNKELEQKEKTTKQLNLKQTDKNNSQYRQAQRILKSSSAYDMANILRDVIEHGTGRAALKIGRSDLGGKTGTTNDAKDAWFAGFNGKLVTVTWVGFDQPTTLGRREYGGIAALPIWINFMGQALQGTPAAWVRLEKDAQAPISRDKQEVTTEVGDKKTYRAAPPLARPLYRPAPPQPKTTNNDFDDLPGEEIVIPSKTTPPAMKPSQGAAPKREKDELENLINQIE
Summary of the method: (§1)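 Competitive equilibrium binding; reporter Bocillin-FL. PBP + inhibitor (titration) pre-incubated → Bocillin-FL, 15 min → gel filtration → fluorescence. EC50 from Hill fit of fraction bound vs [inhibitor].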

A. baumannii CDC-0036 = assay: microbe, parasite or virus in culture; format: cell-based; conditions: Acinetobacter baumannii, CDC0036, read-out: Minimum inhibitory concentration (MIC), A. baumannii CDC-0036
A. baumannii CDC-0045 = assay: microbe, parasite or virus in culture; format: cell-based; conditions: Acinetobacter baumannii, CDC0045, read-out: Minimum inhibitory concentration (MIC), A. baumannii CDC-0045
A. baumannii CDC-0033 = assay: microbe, parasite or virus in culture; format: cell-based; conditions: Acinetobacter baumannii, CDC0033, read-out: Minimum inhibitory concentration (MIC), A. baumannii CDC-0033
A. baumannii PBP2 = A. baumannii PBP2 (Acinetobacter baumannii, UniProt D0C8Z9); assay: Bocillin-FL competition binding via gel filtration, A. baumannii PBP2
Sequence of A. baumannii PBP2 (D0C8Z9 whole entry): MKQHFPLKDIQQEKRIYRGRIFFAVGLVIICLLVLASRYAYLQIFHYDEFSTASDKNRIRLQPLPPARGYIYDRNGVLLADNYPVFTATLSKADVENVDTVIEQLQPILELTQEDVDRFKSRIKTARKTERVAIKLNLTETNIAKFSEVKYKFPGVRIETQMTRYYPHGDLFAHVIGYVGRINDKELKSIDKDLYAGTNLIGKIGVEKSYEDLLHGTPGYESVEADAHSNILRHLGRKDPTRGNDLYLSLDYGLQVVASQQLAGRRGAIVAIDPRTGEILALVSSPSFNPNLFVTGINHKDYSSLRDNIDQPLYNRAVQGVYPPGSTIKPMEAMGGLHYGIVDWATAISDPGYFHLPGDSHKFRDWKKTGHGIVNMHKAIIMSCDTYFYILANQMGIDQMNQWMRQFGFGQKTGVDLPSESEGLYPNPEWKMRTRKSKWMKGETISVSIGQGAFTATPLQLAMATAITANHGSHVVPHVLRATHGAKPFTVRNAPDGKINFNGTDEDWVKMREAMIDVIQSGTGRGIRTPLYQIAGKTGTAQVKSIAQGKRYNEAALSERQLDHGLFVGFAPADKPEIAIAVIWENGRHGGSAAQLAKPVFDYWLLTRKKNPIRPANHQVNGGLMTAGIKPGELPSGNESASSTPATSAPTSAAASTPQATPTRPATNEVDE
Summary of the method: as §1

[3] = system: B. thailandensis ATCC 700388; assay: microbe, parasite or virus in culture; format: cell-based; conditions: Burkholderia thailandensis, ATCC700388, read-out: Minimum inhibitory concentration (MIC), B. thailandensis ATCC 700388
[4] = competition binding assay using Bocillin-FL via gel filtration, read-out: A. baumannii PBP1a Potency

Row | SMILES | MIC [1] [µg/mL] | MIC (P. aeruginosa ATCC 27853) [µg/mL] | MIC ([2]; iron-depleted CAMHB (IDM), […]) [µg/mL] | MIC (P. aeruginosa ATCC 35151) [µg/mL] | EC50 (A. baumannii PBP1a; [4]) [µM] | MIC (A. baumannii CDC-0036) [µg/mL] | MIC (A. baumannii CDC-0045) [µg/mL] | MIC (A. baumannii CDC-0033) [µg/mL] | EC50 (A. baumannii PBP2) [µM] | MIC [3] [µg/mL] | EC50 (A. baumannii PBP1a) [µM] | MIC [2] [µg/mL]
1 | O=C(O)c1c(F)ccc2c1OB(O)[C@@H](NC(=O)[C@H](NC(=O)N1CCN(C3CCN(C(=O)Nc4cc(F)c(F)c(O)c4F)CC3)C(=O)C1=O)c1cc(F)c(O)c(O)c1Cl)C2 [Example 491, (R)-3-((R)-2-(2-chloro-5-fluoro-3,4-dihydroxyphenyl)-2-(2,3-dioxo-4-(1-((2,4,5-trifluoro-3-hydroxyphenyl)carbamoyl)piperidin-4-yl)piperazine-1-carboxamido)acetamido)-7-fluoro-2-hydroxy-3,4-dihydro-2H-benzo[e][1,2]oxaborinine-8-carboxylic acid] | 8 to 16 (≈ 9.36 to 18.7 µM) | 2 to 4 (≈ 2.34 to 4.68 µM) | < 1 | < 1 | < 10 | 2 to 4 (≈ 2.34 to 4.68 µM) | < 1 | 2 to 4 (≈ 2.34 to 4.68 µM) | < 10 | 2 to 4 (≈ 2.34 to 4.68 µM) |  | 
2 | O=C(O)c1c(F)ccc2c1OB(O)[C@@H](NC(=O)[C@H](NC(=O)N1CCN(C3CCN(Cc4cccnc4)CC3)C1=O)c1cc(F)c(O)c(O)c1Cl)C2 [Example 492, (R)-3-((R)-2-(2-chloro-5-fluoro-3,4-dihydroxyphenyl)-2-(2-oxo-3-(1-(pyridin-3-ylmethyl)piperidin-4-yl)imidazolidine-1-carboxamido)acetamido)-7-fluoro-2-hydroxy-3,4-dihydro-2H-benzo[e][1,2]oxaborinine-8-carboxylic acid] | < 1 | < 1 | < 1 | < 1 |  | 2 to 4 (≈ 2.74 to 5.49 µM) | < 1 | < 1 | 10 to 50 | < 1 | < 10 | 
3 | O=C(O)c1c(F)ccc2c1OB(O)[C@@H](NC(=O)[C@H](NC(=O)N1CCN(C3CCN(Cc4ccncc4)CC3)C1=O)c1cc(F)c(O)c(O)c1Cl)C2 [Example 493, (R)-3-((R)-2-(2-chloro-5-fluoro-3,4-dihydroxyphenyl)-2-(2-oxo-3-(1-(pyridin-4-ylmethyl)piperidin-4-yl)imidazolidine-1-carboxamido)acetamido)-7-fluoro-2-hydroxy-3,4-dihydro-2H-benzo[e][1,2]oxaborinine-8-carboxylic acid] | < 1 | 2 to 4 (≈ 2.74 to 5.49 µM) | < 1 | < 1 | < 10 | < 1 | < 1 | 2 to 4 (≈ 2.74 to 5.49 µM) | 10 to 50 | < 1 |  | 
4 | O=C(O)c1c(F)ccc2c1OB(O)[C@@H](NC(=O)[C@H](NC(=O)N1CCN(C3CCN(C(=O)c4ccc(O)c(O)c4Cl)CC3)C1=O)c1ccc(P(=O)(O)O)cc1)C2 [Example 494, (R)-3-((R)-2-(3-(1-(2-chloro-3,4-dihydroxybenzoyl)piperidin-4-yl)-2-oxoimidazolidine-1-carboxamido)-2-(4-phosphonophenyl)acetamido)-7-fluoro-2-hydroxy-3,4-dihydro-2H-benzo[e][1,2]oxaborinine-8-carboxylic acid] | < 1 | < 1 | < 1 | < 1 | 50 to 250 | < 1 | < 1 | < 1 | 10 to 50 | < 1 |  | 
5 | O=C(O)c1c(F)ccc2c1OB(O)[C@@H](NC(=O)[C@H](NC(=O)N1CCN(C3CCN(C(=O)c4cc(O)c(O)c(Cl)c4)CC3)C1=O)c1ccc(P(=O)(O)O)cc1)C2 [Example 496, (R)-3-((R)-2-(3-(1-(3-chloro-4,5-dihydroxybenzoyl)piperidin-4-yl)-2-oxoimidazolidine-1-carboxamido)-2-(4-phosphonophenyl)acetamido)-7-fluoro-2-hydroxy-3,4-dihydro-2H-benzo[e][1,2]oxaborinine-8-carboxylic acid] | < 1 | < 1 | < 1 | < 1 | < 10 | < 1 | < 1 | < 1 | < 10 | < 1 |  | 
6 | O=C(O)c1c(F)ccc2c1OB(O)[C@@H](NC(=O)[C@H](NC(=O)N1CCN(Cc3ccc(O)c(O)c3Cl)C(=O)C1=O)c1cc(F)c(P(=O)(O)O)c(F)c1)C2 [Example 502, (R)-3-((R)-2-(4-(2-chloro-3,4-dihydroxybenzyl)-2,3-dioxopiperazine-1-carboxamido)-2-(3,5-difluoro-4-phosphonophenyl)acetamido)-7-fluoro-2-hydroxy-3,4-dihydro-2H-benzo[e][1,2]oxaborinine-8-carboxylic acid] | < 1 | < 1 | < 1 | < 1 | 10 to 50 | < 1 | < 1 | < 1 | < 10 | < 1 |  | 
7 | O=C(NCCN1CCN(C(=O)N[C@@H](C(=O)N[C@H]2Cc3ccc(F)c(C(=O)O)c3OB2O)c2ccc(P(=O)(O)O)cc2)C(=O)C1=O)c1ccc(O)c(O)c1Cl [Example 503, (R)-3-((R)-2-(4-(2-(2-chloro-3,4-dihydroxybenzamido)ethyl)-2,3-dioxopiperazine-1-carboxamido)-2-(4-phosphonophenyl)acetamido)-7-fluoro-2-hydroxy-3,4-dihydro-2H-benzo[e][1,2]oxaborinine-8-carboxylic acid] | < 1 | < 1 | < 1 | < 1 | 10 to 50 | 2 to 4 (≈ 2.53 to 5.05 µM) | 2 to 4 (≈ 2.53 to 5.05 µM) | 2 to 4 (≈ 2.53 to 5.05 µM) | 10 to 50 | < 1 |  | 
8 | O=C(O)c1cccc2c1OB(O)[C@@H](NC(=O)[C@H](NC(=O)N1CCN(Cc3cc(F)c(O)c(O)c3Cl)C(=O)C1=O)c1ccc(P(=O)(O)O)cc1)C2 [Example 504, (R)-3-((R)-2-(4-(2-chloro-5-fluoro-3,4-dihydroxybenzyl)-2,3-dioxopiperazine-1-carboxamido)-2-(4-phosphonophenyl)acetamido)-2-hydroxy-3,4-dihydro-2H-benzo[e][1,2]oxaborinine-8-carboxylic acid] | < 1 | < 1 |  | < 1 | < 10 | < 1 | < 1 | < 1 | < 10 | < 1 |  | < 1
9 | O=C(O)c1c(F)ccc2c1OB(O)[C@@H](NC(=O)C(NC(=O)N1CCN(S(=O)(=O)c3ccc(O)c(O)c3Cl)C1=O)c1ccc(P(=O)(O)O)cc1)C2 (stereo partly drawn) [Example 505, (3R)-3-(2-(3-((2-chloro-3,4-dihydroxyphenyl)sulfonyl)-2-oxoimidazolidine-1-carboxamido)-2-(4-phosphonophenyl)acetamido)-7-fluoro-2-hydroxy-3,4-dihydro-2H-benzo[e][1,2]oxaborinine-8-carboxylic acid] | < 1 | < 1 | < 1 | < 1 | < 10 | < 1 | < 1 | < 1 | < 10 | < 1 |  | 
